Values quoted from earlier work, collected in patent US20080077374A1, “Method for predicting biological, biochemical, biophysical or pharmacological characteristics of a substance” (priority 2006, published 2008).
Like-named read-outs stand apart in the source and are kept apart here.

Experiments:
male Sprague Dawley rats = conditions: for Diagnosis cc: clinical chemistry; for Diagnosis histo: histopathology; for Main target: main toxicity target; for observed severity of histological lesions: liver, labelled by COMET1 study number
HanWistar rats = HanWistar rats (study R12)
[1] = SpragueDawley rats, refinement of the principal toxicity

Row | Compound | Diagnosis cc (male Sprague Dawley rats; SpragueDawley rats) | Diagnosis histo (male Sprague Dawley rats; SpragueDawley rats) | Main target (male Sprague Dawley rats; SpragueDawley rats) | observed severity of histological lesions (male Sprague Dawley rats) | 2nd toxicity (male Sprague Dawley rats; rat, in vivo) | Subclass/Indication (male Sprague Dawley rats; SpragueDawley rats) | Tox class (male Sprague Dawley rats; SpragueDawley rats, highest dose level, pathology at 48 h post dose, assumed organ toxicity class) | 2nd toxicity (male Sprague Dawley rats; [1]) | 2nd toxicity (HanWistar rats) | Subclass/Indication (HanWistar rats) | Diagnosis cc (HanWistar rats; clinical chemistry) | Diagnosis histo (HanWistar rats; histopathology) | Main target (HanWistar rats; main toxicity target)
1 | S=C=Nc1cccc2ccccc12 [ANIT] | + | 2bil | Hepatotoxic | no or minimal liver lesions |  |  |  |  |  |  |  |  | 
2 | CC(=O)Nc1nnc(S(N)(=O)=O)s1 [Acetazolamide] |  |  |  |  | Papilla |  |  |  |  |  |  |  | 
3 | Cl.N [Ammonium Chloride] | + | 0 | Kidney |  |  | Non-Toxic | ntx | Metabolic |  |  |  |  | 
4 | CCOC(=O)C(C)(C)Oc1ccc(Cl)cc1 [Clofibrate] | + | 9sub | Hepatotoxic | no or minimal liver lesions | Peroxisome | Toxicant |  |  |  |  |  |  | 
5 | CN(C)N=O [Di-methylnitrosamin] | + | 2 | Hepatotoxic | marked liver lesions |  | Toxicant |  | Direct reaction |  |  |  |  | 
6 | NN [Hydrazine] | + | 7 | Hepatotoxic |  |  | Toxicant |  | Steatosis | Steatosis | Toxicant | + | 7 | Hepatotoxic
7 | O=C(O)/C=C\C(=O)O [Maleic acid] |  |  |  |  | Proximal |  |  |  |  |  |  |  | 
8 | [Cl][Hg][Cl] [Mercury Chloride] | + | 3 | Nephrotoxic |  |  | Toxicant |  | Proximal |  |  |  |  | 
9 | CN(Cc1cnc2nc(N)nc(N)c2n1)c1ccc(C(=O)N[C@@H](CCC(=O)O)C(=O)O)cc1 [Methotrexate] | − | 1hea | Hemotoxic |  | Liver & kidney | Toxicant |  |  |  |  |  |  | 
10 | CO[C@@]12[C@H](COC(N)=O)C3=C(C(=O)C(C)=C(N)C3=O)N1C[C@@H]1N[C@@H]12 [Mitomycin] |  | 1hae |  |  | Tubules, blood |  |  |  |  |  |  |  | 
11 | CNC=O [N-methylformamid] | + | 2 | Hepatotoxic |  |  | Toxicant |  | Direct reaction |  |  |  |  | 
12 | CN[C@H](CC(C)C)C(=O)N[C@H]1C(=O)N[C@@H](CC(N)=O)C(=O)N[C@H]2C(=O)N[C@H]3C(=O)N[C@H](C(=O)N[C@H](C(=O)O)c4cc(O)cc(O)c4-c4cc3ccc4O)[C@H](O)c3ccc(c(Cl)c3)Oc3cc2cc(c3O[C@@H]2O[C@H](CO)[C@@H](O)[C@H](O)[C@H]2O[C@H]2C[C@](C)(N)[C@H](O)[C@H](C)O2)Oc2ccc(cc2Cl)[C@H]1O [Vancomycin] | + | 3reg | Nephrotoxic |  |  | Toxicant |  | Proximal |  |  |  |  | 
13 | Gentamicin | + | 3sub | Nephrotoxic |  |  | Toxin |  | Proximal |  |  |  |  | 
